{"source": "patent US8097224B2", "about": "“Apparatuses and media for drug elution and methods for making and using them” (Medtronic MiniMed, Inc., priority 2007, dated 2012)", "details": "0.022 mg/mL", "description": "To evaluate buffers with different pH, eleven milligrams of Dexamethasone Acetate was dissolved in 500 mL of media (different pH adjusted buffers).", "data": [{"smiles": "CC(=O)OCC(=O)[C@@]1(O)[C@H](C)C[C@H]2[C@@H]3CCC4=CC(=O)C=C[C@]4(C)[C@@]3(F)[C@@H](O)C[C@@]21C", "note": "[Dexamethasone Acetate]", "values": [{"measurement": "stability with respect to pH (order)", "value": "pH 3>pH 5≅acetate pH 5.7>water>pH 7>pH 9"}]}]}
